Reference: PMC4433340 (PLoS Neglected Tropical Diseases, 2015)

Tests used:
HL-60 cells = assay: Cell viability by MTT reduction assay, HL-60 cells; assay type: cell-based; conditions: Homo sapiens, 24 hours incubation, mean ± SD, n = 3, read-out: IC50, cellular viability, HL-60 cells
Method: HL-60 cells (ATCC CCL240) are a promyelocytic cell line that was derived by S.J. Collins et al. Peripheral blood leukocytes were obtained by leukapheresis from a person with acute promyelocytic leukemia. The cell line was cultured with Iscove's Modified Dulbecco's Medium plus 10% v/v FBS.
(§1) The effect of the drug on all cells and parasite viability was evaluated through the tetrazolium salt (MTT, Sigma-Aldrich) reduction assay as described. […] Cultures were incubated for 24 hours before adding MTT for 4 hours. The plates were incubated overnight with 10% SDS w/v in 0.01 M HCl at 37°C, and optical density (OD) was determined using a microplate reader (Labsystems Multiskan MS, Finland) at 570 nm. Under these conditions, the OD was directly proportional to viable cell number per well. All of the experiments were performed at least three times, and the data are shown as the means and their standard deviations from triplicate cultures.

[1] = tested on: intracellular T. cruzi amastigotes in EA.hy926 cells; assay: DAPI staining and intracellular amastigote quantification; assay type: cell-based, Trypanosoma cruzi; conditions: 5 μM simvastatin or 20 μM benznidazole for 24 hours before infection; counted after 72 hours
Method: 2x10^4 EA.hy926 cells/slide were seeded in Lab-Tek II Chamber Slides for 12 h. […] Then, the cells were washed and fixed in cold methanol (70%) overnight. The fixed cells were then washed, and 1 mL PBS (pH 7.4) was added. DNA was stained with DAPI (NucBlue; Molecular Probes, USA) following the manufacturer's instructions. The cells were photographed using a Nikon Eclipse 400 fluorescence microscope using 358 nm (excitation) and 461 nm (emission) wavelengths. In total, ten pictures were obtained per well, and each picture was counted using MATLAB software.
In Fig 3, total E-selectin (Fig 3A), ICAM-1 (Fig 3B) and VCAM-1 (Fig 3C) protein expression analyses are shown. […] To evaluate parasite load, DAPI-stained cells were photographed (20.12 ± 3.8 cells per photograph, 20 photographs per experimental condition; infected to uninfected cells ratio of 1:5) and the number of intracellular amastigotes was determined by manual count.

[2] = tested on: total E-selectin, ICAM-1 and VCAM-1 protein in T. cruzi-infected endothelial cells; assay: Total ECAM protein by Western blot; assay type: cell-based, human; conditions: 5 μM simvastatin or 20 μM benznidazole for 24 hours before 16 hours infection
Method: (§2) 5x10^5 endothelial cells were rinsed once with PBS and scraped. Proteins were extracted into 100 μL RIPA buffer plus a protease and phosphatase inhibitor cocktail (Radio-Immunoprecipitation Assay; Millipore Corporation, USA) at 4°C. Total protein was quantified with the Lowry assay. Samples in loading buffer (10% SDS, 50% glycerol, 0.5 M Tris, 0.1% bromophenol blue, and 1 M dithiothreitol, pH 6.8) were electrophoretically separated by 10% SDS-PAGE and transferred to a nitrocellulose membrane. Nitrocellulose membranes were incubated with blocking solution (5% w/v nonfat dry milk, 0.1% Tween-20 in Tris-buffered saline) at room temperature for 1 hour. Then, the membranes were incubated at 4°C overnight with 1 mL solution of primary antibodies against E-selectin (1:1000) and α-Tubulin (1:10.000) from Sigma-Aldrich, ICAM-1 (1:2000) and VCAM-1 (1:1000) from Abcam, 7 ml solution of p-IKK (1:1000), IKK (1:1000), p-IκB (1:1000) and IκB (1:1000) from Cell signaling (Cell Signaling Technologies, USA). Bound antibodies were detected with horseradish peroxidase-conjugated secondary antibodies and visualized by Lumminata forte (Millipore). The nitrocellulose was stripped between reprobes using Mild stripping (Millipore) for 10 minutes. Developed films were scanned, and band densitometry was analyzed using ImageJ software (ImageJ 1.47v).

[3] = tested on: NF-κB pathway (p-IKK, p-IκB) in T. cruzi-infected EA.hy926 cells; assay: IKK and IκB phosphorylation by Western blot; assay type: cell-based, human; conditions: 5 μM simvastatin or 20 μM benznidazole, T. cruzi 1 hour
Method: as §2

EA.hy926 cells = assay: Cell viability by MTT reduction assay, EA.hy926 cells; assay type: cell-based; conditions: Homo sapiens, EA.hy 926, 24 hours incubation, mean ± SD, n = 3, read-out: IC50, cellular viability, EA.hy926 cells
Method: EA.hy926 cells (ATCC CRL2922) are a human umbilical vein cell line established by fusing primary human umbilical vein cells with a thioguanine-resistant clone of A549 by exposure to polyethylene glycol (PEG). Hybrid clones were selected in HAT medium and screened for factor VIII-related antigen. The cell line was cultured following reported conditions. Cells were cultured on Iscove's Modified Dulbecco's Medium (IMDM, Biological Industries, Israel) supplemented with 10% v/v FBS, 100 U/mL penicillin, and […] streptomycin at 37°C and 5% CO2.
as §1

[4] = tested on: 15-epi-lipoxin A4 production by EA.hy926 cells; assay: 15-epi-lipoxin A4 determination by ELISA in culture supernatants; assay type: cell-based, human; conditions: ELISA (Fig 7A); for 15-epi-LXA4 production in T. cruzi-infected endothelial cells: EA.hy926 infected 16 hours, drug added afterwards
Method: 8x10^5 EA.hy926 cells/well were cultured in 6-well plates (IMDM 10% SFB). […] 15-epi-LXA4 determination was performed by:
• ELISA assay: the supernatant from the cell cultures was assayed using a 15-epi-LXA4 BioAssay ELISA Kit (USBiological, USA) following manufacturer’s instructions. • AxION DSA—TOF MS determination: To determine 15-epi-lipoxin A4 levels in EAhy926 cell culture supernatants, an AxION Direct Sample Analysis (DSA) that was integrated with an AxION 2 time-of-flight (TOF) mass spectrometer (PerkinElmer, Shelton, CT, USA) was employed. For extraction, all of the samples were loaded onto a solid phase extraction and eluted with 1 mL chloroform three times successively. Then, the samples were transferred into a clean tube, and the chloroform in the samples was evaporated in a water bath. Finally, the samples were resuspended in 100 μL ethanol, and 10 μL were pipetted onto a stainless mesh. For the calibration curve, 15-epi-lipoxin A4 (cat#90415, Cayman Chemical, USA) was diluted in PBS to achieve different final concentrations (see S1 Fig). From each tube, 10 μL was pipetted onto a stainless mesh, and DSA—TOF determination was performed. The AxION DSA conditions were as follows: 5 μA corona current, 250°C heater temperature, 80 psi auxiliary gas (N2) pressure, 4 L/min drying gas (N2) flow, and 25°C drying gas (N2) temperature. […] Mass spectra were acquired with a mass range of 100–1000 m/z and an acquisition rate of 2 spectra/sec. To maintain mass accuracy, […] lock mass ions were used (m/z 119.0400, m/z 556.0000 and m/z 805.9900). All of the samples were analyzed for only 10 sec. The standards used were 15-epi-lipoxin A4 (cat#90415, Cayman Chemical,) and 5(S),6(R)-Lipoxin A4 methyl ester (cat#10033, Cayman Chemical) as an internal standard. These were confirmed in seconds by accurate mass and isotopic distribution of parent and fragment ions using DSA/TOF and AxION software, and compound identification was performed using the standards. All of the samples were analyzed in triplicate.

SMILES | IC50 (HL-60 cells) | Intracellular T. cruzi (amastigote) load [1] | Total cell adhesion molecule protein amount [2] | Response of the IKK-IκB system (p-IKK, p-IκB) [3] | IC50 (EA.hy926 cells) | 15-epi-LXA4 production in T. cruzi-infected endothelial cells [4] | 15-epi-LXA4 levels with drug alone ([4]; 5 μM simvastatin, EA.hy926 without T. cruzi)
O=C(Cn1ccnc1[N+](=O)[O-])NCc1ccccc1 [Benznidazole] | < 100 µM | not affected | decreased cell adhesion molecule amount | significantly decreased the response of the Ikk-IkB system | < 100 µM | did not induce | –
CCC(C)(C)C(=O)O[C@H]1C[C@@H](C)C=C2C=C[C@H](C)[C@H](CC[C@@H]3C[C@@H](O)CC(=O)O3)[C@H]21 [Simvastatin] | 68 ± 1.11 µM | not affected | decreased cell adhesion molecule amount | significantly decreased the response of the Ikk-IkB system | 65.4 ± 1.02 µM | induced 15-epi-LXA4 | rose slightly
